Measurements from US12486267B2, “Imidazo[1,2-A]pyridine and [1,2,4]triazolo[1,5-A]pyridine derivatives as TLR9 inhibitors for the treatment of fibrosis” (BRISTOL-MYERS SQUIBB COMPANY, priority 2020, dated 2025).
pIC50: −log10 of the molar value.

Key:
Type in all cases: cell-based
[1] = target: T1, human TLR9 (Homo sapiens, UniProt Q9NR96); test: TLR9 inhibition reporter assay (HEK-Blue cells, SEAP reporter); conditions: HEK-Blue cells overexpressing human TLR9; stimulated with ODN2006 5 nM; 22 hour incubation; SEAP readout
T1 sequence (Q9NR96 26-1032): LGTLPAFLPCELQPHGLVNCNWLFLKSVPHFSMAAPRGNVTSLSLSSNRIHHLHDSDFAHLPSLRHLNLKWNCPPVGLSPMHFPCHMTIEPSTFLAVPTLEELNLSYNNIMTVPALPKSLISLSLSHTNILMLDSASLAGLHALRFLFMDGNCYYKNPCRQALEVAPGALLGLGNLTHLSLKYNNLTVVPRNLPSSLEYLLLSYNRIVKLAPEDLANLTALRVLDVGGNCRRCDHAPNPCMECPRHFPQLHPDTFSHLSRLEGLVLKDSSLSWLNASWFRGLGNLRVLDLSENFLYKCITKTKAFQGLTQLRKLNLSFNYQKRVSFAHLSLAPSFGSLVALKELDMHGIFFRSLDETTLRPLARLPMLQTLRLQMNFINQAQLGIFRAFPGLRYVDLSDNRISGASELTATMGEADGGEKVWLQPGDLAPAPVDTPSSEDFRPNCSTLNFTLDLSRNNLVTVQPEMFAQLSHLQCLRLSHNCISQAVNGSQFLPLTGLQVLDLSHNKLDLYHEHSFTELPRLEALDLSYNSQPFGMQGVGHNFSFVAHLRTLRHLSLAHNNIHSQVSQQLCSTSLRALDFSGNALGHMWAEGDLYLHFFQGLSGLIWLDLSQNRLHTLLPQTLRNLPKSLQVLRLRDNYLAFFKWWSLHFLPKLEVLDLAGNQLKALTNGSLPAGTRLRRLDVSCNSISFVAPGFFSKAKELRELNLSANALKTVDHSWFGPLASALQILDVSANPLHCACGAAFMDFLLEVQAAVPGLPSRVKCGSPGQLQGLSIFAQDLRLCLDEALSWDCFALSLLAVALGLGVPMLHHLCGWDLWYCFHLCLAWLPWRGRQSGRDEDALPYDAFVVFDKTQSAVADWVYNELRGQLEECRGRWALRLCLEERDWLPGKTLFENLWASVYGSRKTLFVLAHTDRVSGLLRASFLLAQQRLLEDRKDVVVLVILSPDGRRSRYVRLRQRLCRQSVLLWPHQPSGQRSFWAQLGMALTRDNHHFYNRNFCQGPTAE
How it was run: (§1)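 HEK-Blue cells with an NF-κB/AP-1-driven SEAP reporter were pre-treated 30 min at room temperature with compound (0.05 nM–50 μM), then stimulated with gardiquimod 7.5 μM (TLR7), R848 15.9 μM (TLR8) or ODN2006 5 nM (TLR9). After 22 h at 37 °C, SEAP was read; % inhibition was referenced to agonist+DMSO and known-inhibitor wells.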

[2] = target: T2, human TLR7 (Homo sapiens, UniProt Q9NYK1); test: TLR7 inhibition reporter assay (HEK-Blue cells, SEAP reporter); conditions: HEK-Blue cells overexpressing human TLR7; stimulated with gardiquimod 7.5 μM; 22 hour incubation; SEAP readout
T2 sequence (Q9NYK1 27-1049): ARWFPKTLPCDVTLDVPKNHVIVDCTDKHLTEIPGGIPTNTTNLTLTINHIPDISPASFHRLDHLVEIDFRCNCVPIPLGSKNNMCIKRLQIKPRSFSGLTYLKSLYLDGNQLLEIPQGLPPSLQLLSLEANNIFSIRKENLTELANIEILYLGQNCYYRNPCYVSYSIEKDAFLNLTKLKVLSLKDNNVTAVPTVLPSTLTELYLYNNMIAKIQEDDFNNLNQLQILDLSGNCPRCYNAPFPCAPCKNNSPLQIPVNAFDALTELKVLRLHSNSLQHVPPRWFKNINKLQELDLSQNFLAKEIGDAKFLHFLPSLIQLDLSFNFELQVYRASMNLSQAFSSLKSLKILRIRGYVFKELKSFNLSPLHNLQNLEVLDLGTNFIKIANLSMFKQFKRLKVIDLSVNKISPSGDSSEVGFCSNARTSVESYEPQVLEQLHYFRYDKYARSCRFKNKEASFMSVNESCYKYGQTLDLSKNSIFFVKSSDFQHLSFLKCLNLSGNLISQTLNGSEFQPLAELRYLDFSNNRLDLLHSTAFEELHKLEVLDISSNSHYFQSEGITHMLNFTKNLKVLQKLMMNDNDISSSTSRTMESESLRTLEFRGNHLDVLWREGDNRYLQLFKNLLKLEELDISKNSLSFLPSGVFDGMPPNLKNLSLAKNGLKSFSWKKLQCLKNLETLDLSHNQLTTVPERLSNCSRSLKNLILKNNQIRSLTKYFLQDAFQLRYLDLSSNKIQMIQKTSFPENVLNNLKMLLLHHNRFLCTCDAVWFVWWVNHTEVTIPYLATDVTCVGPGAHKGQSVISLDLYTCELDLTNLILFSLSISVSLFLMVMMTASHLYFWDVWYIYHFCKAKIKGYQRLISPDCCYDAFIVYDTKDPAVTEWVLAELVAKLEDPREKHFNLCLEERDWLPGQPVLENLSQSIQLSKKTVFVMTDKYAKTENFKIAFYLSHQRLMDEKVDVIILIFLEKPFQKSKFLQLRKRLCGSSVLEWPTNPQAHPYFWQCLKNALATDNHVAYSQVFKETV
How it was run: as §1

[3] = target: T3, human TLR8 (Homo sapiens, UniProt Q9NR97); test: TLR8 inhibition reporter assay (HEK-Blue cells, SEAP reporter); conditions: HEK-Blue cells overexpressing human TLR8; stimulated with R848 15.9 μM; 22 hour incubation; SEAP readout
T3 sequence (Q9NR97 27-1041): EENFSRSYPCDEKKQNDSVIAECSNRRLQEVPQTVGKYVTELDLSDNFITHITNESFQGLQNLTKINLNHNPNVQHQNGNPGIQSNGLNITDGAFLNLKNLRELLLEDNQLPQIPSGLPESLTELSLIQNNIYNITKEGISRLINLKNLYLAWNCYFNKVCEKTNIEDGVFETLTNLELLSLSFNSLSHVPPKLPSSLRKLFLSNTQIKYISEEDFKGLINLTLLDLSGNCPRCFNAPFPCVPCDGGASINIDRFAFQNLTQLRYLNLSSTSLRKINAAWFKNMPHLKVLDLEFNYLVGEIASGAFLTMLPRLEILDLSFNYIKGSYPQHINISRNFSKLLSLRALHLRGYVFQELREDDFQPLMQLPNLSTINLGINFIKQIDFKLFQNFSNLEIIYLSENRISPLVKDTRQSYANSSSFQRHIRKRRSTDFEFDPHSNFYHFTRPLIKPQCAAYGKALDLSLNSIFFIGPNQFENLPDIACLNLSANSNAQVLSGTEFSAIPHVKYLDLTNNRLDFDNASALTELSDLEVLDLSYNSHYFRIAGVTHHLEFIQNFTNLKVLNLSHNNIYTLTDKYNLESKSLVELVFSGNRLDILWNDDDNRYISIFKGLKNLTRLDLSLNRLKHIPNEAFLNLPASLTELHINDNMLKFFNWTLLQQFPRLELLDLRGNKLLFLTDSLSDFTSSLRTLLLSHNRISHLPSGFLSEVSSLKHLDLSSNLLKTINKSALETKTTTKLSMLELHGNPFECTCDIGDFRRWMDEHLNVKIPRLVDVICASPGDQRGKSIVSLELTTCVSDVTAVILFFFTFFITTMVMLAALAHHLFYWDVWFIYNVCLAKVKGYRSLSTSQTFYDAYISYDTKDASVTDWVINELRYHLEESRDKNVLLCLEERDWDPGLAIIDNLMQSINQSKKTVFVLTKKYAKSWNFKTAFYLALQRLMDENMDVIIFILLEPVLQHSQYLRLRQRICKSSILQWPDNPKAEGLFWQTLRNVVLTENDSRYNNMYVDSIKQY
How it was run: as §1

Row | SMILES | pIC50 [1] | pIC50 [2] | pIC50 [3]
1 | COc1ccc(-c2cn3cc(C4CCN(C5CC6CCC(C5)N6C(C)C)CC4)cc(C)c3n2)cc1OC (single isomer, unassigned) [Example 22, 2-(3,4-dimethoxyphenyl)-6-(1-(8-isopropyl-8-azabicyclo[3.2.1]octan-3-yl)piperidin-4-yl)-8-methylimidazo[1,2-a]pyridine] | 7.52 | 5.92 | < 4.30
2 | COc1ccc(-c2cn3c(n2)CC(C2CCN(C4CCN(C(C)C)CC4)CC2)CC3)cc1OC (racemic) [Example 58, 2-(3,4-dimethoxyphenyl)-7-(1′-isopropyl-[1,4′-bipiperidin]-4-yl)-5,6,7,8-tetrahydroimidazo[1,2-a]pyridine] | 7.22 | 4.89 | 4.82
3 | COc1ccc(-c2cn3cc(C4CC5CCC(C4)N5C4CCN(C5CC5)CC4)cc(C)c3n2)cc1OC (single isomer, unassigned) [Example 26, 6-(8-(1-cyclopropylpiperidin-4-yl)-8-azabicyclo[3.2.1]octan-3-yl)-2-(3,4-dimethoxyphenyl)-8-methylimidazo[1,2-a]pyridine] | 7.07 | 5.70 | < 4.30
4 | COc1ccc(-c2cn3c(n2)CC[C@H](C2CCN(C4CC5CCC(C4)N5CC(C)C)CC2)C3)cc1OC (single isomer, unassigned) [Example 76] | 7.28 | 5.80 | < 4.60
5 | Cc1cc(C2CCN(C3CCN(CC(C)C)CC3)CC2)cn2nc(-c3ccc(S(C)(=O)=O)cc3)nc12 [Example 163, 6-(1′-isobutyl-[1,4′-bipiperidin]-4-yl)-8-methyl-2-(4-(methylsulfonyl)phenyl)-[1,2,4]triazolo[1,5-a]pyridine] | 7.47 | < 4.30 | < 4.30
6 | Cc1cc(-c2ccc(N3CCN(CC4CCC4)CC3)cc2)cn2cc(-c3ccc(S(C)(=O)=O)cc3)nc12 [Example 101, 6-(4-(4-(cyclobutylmethyl)piperazin-1-yl)phenyl)-8-methyl-2-(4-(methylsulfonyl)phenyl)imidazo[1,2-a]pyridine] | 6.10 | 4.74 | 4.85

The remaining molecules from weak to strong by pIC50 [1], led by results:

Row | pIC50 [1] | pIC50 [2] | pIC50 [3] | SMILES
7 | 5.91 | 4.96 | < 4.30 | COc1ccc(-c2nc3cc(C4CCN(C5CCN(CC(C)C)CC5)CC4)ccn3n2)cc1OC [Example 61, 2-(3,4-dimethoxyphenyl)-7-(1′-isobutyl-[1,4′-bipiperidin]-4-yl)-[1,2,4]triazolo[1,5-a]pyridine]
8 | 6.43 | 4.35 | < 4.30 | COc1ccc(-c2cn3c(n2)CCC(C2CCN(C4CCN(C(=O)C5CC5)CC4)CC2)C3)cc1OC (single isomer, unassigned) [Example 43, cyclopropyl(4-(2-(3,4-dimethoxyphenyl)-5,6,7,8-tetrahydroimidazo[1,2-a]pyridin-6-yl)-[1,4′-bipiperidin]-1′-yl)methanone]
9 | 6.50 | 4.53 | < 4.30 | CS(=O)(=O)c1ccc(-c2cn3cc(C4CCN(C5CCN(C6CC6)CC5)CC4)cc(F)c3n2)cc1 [Example 108, 6-(1′-cyclopropyl-[1,4′-bipiperidin]-4-yl)-8-fluoro-2-(4-(methylsulfonyl)phenyl) imidazo[1,2-a]pyridine]
10 | 6.90 | 5.52 | < 4.30 | COc1ccc(-c2cn3cc(C4CCN(C5CC6CCC(C5)N6CC5CC5)CC4)cc(C)c3n2)cc1OC (single isomer, unassigned) [Example 21, 6-(1-(8-(cyclopropylmethyl)-8-azabicyclo[3.2.1]octan-3-yl)piperidin-4-yl)-2-(3,4-dimethoxyphenyl)-8-methylimidazo[1,2-a]pyridine]
11 | 6.96 | 5.09 | < 4.30 | CC(C)N1C2CCC1CC(N1CCC(c3cc(F)c4nc(-c5ccc(S(C)(=O)=O)cc5)cn4c3)CC1)C2 (single isomer, unassigned) [Example 68, 8-fluoro-6-(1-(8-isopropyl-8-azabicyclo[3.2.1]octan-3-yl)piperidin-4-yl)-2-(4-(methylsulfonyl)phenyl)imidazo[1,2-a]pyridine]
12 | 7.44 | 5.38 | < 4.30 | COc1ccc(-c2cn3c(n2)CCC(C2CCN(C4CCN(CC5CC5)CC4)CC2)C3)cc1OC (single isomer, unassigned) [Example 57, 6-(1′-(cyclopropylmethyl)-[1,4′-bipiperidin]-4-yl)-2-(3,4-dimethoxyphenyl)-5,6,7,8-tetrahydroimidazo[1,2-a]pyridine]
13 | 7.66 | 5.59 | < 4.30 | COc1ccc(-c2cn3c(n2)CCC(C2CCN(C4CC5(C4)CN(CC(C)C)C5)CC2)C3)cc1OC (single isomer, unassigned) [Example 53, 2-(3,4-dimethoxyphenyl)-6-(1-(2-isobutyl-2-azaspiro[3.3]heptan-6-yl)piperidin-4-yl)-5,6,7,8-tetrahydroimidazo[1,2-a]pyridine]
